Assay results as given in patent publication US9580487B2, “Method of treating stomach or bowel-related disorders by administering glucagon-like-peptide-2 (GLP-2) analogues” (Zealand Pharma A/S, priority 2005, dated 2017).
Entries after “also recorded” stand apart in the source; their conditions may differ. No end group written: not given here.

Tests used:
[1] = system: male C57BL mice; assay: Screening for intestinal growth effects (small intestine and colon mass relative to body weight, small intestine-colon sensitivity index); format: in vivo; details: for Small intestine mass relative to [Gly2]GLP-2 / Preferential growth of small intestine versus colon (small intestine-colon sensitivity): 30 nmol/kg s.c. twice daily, ten days; for Small intestine mass relative to [Gly2]GLP-2: equimolar [Gly2]GLP-2; for Preferential growth of small intestine versus colon (small intestine-colon sensitivity): relative to [Gly2]GLP-2; for colon mass relative to body weight, % [Gly2]GLP-2 / small intestine-colon sensitivity index, (SI/Colon)X/(SI/Colon)[Gly2]GLP-2 %: male C57BL mice, 30 nmol/kg s.c. twice daily for ten days; for small intestine-colon sensitivity index, (SI/Colon)X/(SI/Colon)[Gly2]GLP-2 %: third value column
In short: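 Groups of six mice were dosed s.c. at 30 nmol/kg twice daily for ten days, with vehicle (PBS, pH 7.4) or equimolar [Gly2]GLP-2 as comparators. The sensitivity index was (SI/Colon) of the compound over that of [Gly2]GLP-2, with ≥1.05 counted as small-intestine-selective and ≤0.95 as colon-selective.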

[2] = system: C57BL mice treated with 5-Fluorouracil (5-FU); assay: 5-FU-induced small intestinal atrophy (SI-BW, SI length) in mice; format: in vivo; details: for 5-FU-induced small intestine atrophy (SI-BW, SI length): 5-405 (810) nmol/kg s.c. b.i.d., 3 days prior to and 4 days with 5-FU 50 mg/kg i.p. daily; for Efficacy on SI-length compared with 405 nmol/kg [Gly2]GLP-2 / Efficacy on SI-BW compared with 405 nmol/kg [Gly2]GLP-2: 5-FU treated mice; for Efficacy on SI-BW compared with 405 nmol/kg [Gly2]GLP-2: equimolar dose; for Efficacy on 5-FU-induced atrophy compared with [Gly2]GLP-2 (figure legends): high/highest doses vs [Gly2]GLP-2 405 nmol/kg
Protocol: (§1) FIG. 6 is a set of graphs showing the effect of compound 1846 (SEQ ID NO:34) (5, 15, 45, 135, 405 and 810 nmol/kg, s.c., b.i.d.; n=6/dose group) on A) small intestine-to-body weight ratio (SI-BW), and B) small intestinal length (SI length) in mice treated with the cytostatic drug 5-Fluorouracil (5-FU). Compound 1846 (SEQ ID NO:34) was administered for 3 days prior to and for 4 days together with 5-FU, 50 mg/kg, i.p. daily. For reference, [Gly2]GLP-2 (SEQ ID NO:54) (405 nmol/kg) was given to one group of animals. Results from control animals treated with vehicle (PBS) or 5-FU alone are also shown. […] Values are means±SEM. * P<0.05, relative to 5-FU.
as §1, with “FIG. 7” for “FIG. 6”, “compound 1848” for “compound 1846”, “ID NO:36)” for “ID NO:34)”, “Compound 1848” for “Compound 1846”, “5-FU. # P<0.05, relative to [Gly2]GLP-2.” for “5-FU.”
FIG. 8 is a set of graphs showing the effect of compound 1855 (SEQ ID NO:43) (5, 15, 45, 135, and 405 nmol/kg, s.c., b.i.d.; n=6/dose group) on A) small intestine-to-body weight ratio (SI-BW), and B) small intestinal length (SI length) in mice treated with the cytostatic drug 5-Fluorouracil (5-FU). Compound 1855 (SEQ ID NO:43) was administered for 3 days prior to and for 4 days together with 5-FU, 50 mg/kg, i.p. daily. For reference, [Gly2]GLP-2 (405 nmol/kg) was given to one group of animals. Results from control animals treated with vehicle (PBS) or 5-FU alone are also shown. […] Values are means±SEM. * P<0.05, relative to 5-FU. # P<0.05, relative to [Gly2]GLP-2 (SEQ ID NO:54).
FIG. 9 is a set of graphs showing the effect of compound 1857 (SEQ ID NO:45) (5, 15, 45, 135, and 405 nmol/kg, s.c., b.i.d.; n=6/dose group) on A) small intestine-to-body weight ratio (SI-BW), and B) small intestinal length (SI length) in mice treated with the cytostatic drug 5-Fluorouracil (5-FU). Compound 1857 (SEQ ID NO:45) was administered for 3 days prior to and for 4 days together with 5-FU, 50 mg/kg, i.p. daily. For reference, [Gly2]GLP-2 (SEQ ID NO:54) (405 nmol/kg) was given to one group of animals. Results from control animals treated with vehicle (PBS) or 5-FU alone are also shown. […] Values are means±SEM. * P<0.05, relative to 5-FU. # P<0.05, relative to [Gly2]GLP-2 (SEQ ID NO:54).
The rapid rate of proliferation of the small intestinal stem cells, makes them a susceptible target to the cytotoxic effects of the chemotherapeutic agents used in anti-cancer therapies. Consequently, clinical use of the chemotherapeutic agent 5-fluorouracil (5-FU) is frequently associated with small intestinal injury (atrophy and diarrhea in cancer patients. We have previously shown that i.p. administration of 50 mg/kg 5-FU once daily for four days induces significant small intestinal atrophy in C57BL mice. The effect of the lead compounds, 1846 (SEQ ID NO:34), 1848 (SEQ ID NO:36), 1855 (SEQ ID NO:43), and 1857 (SEQ ID NO:45) on 5-FU-induced small intestinal atrophy was investigated in mice. 1846 (SEQ ID NO:34), 1848 (SEQ ID NO:36), 1855 (SEQ ID NO:43), or 1857 (SEQ ID NO:45) were administered twice daily for three days prior to 5-FU and for four days together with 5-FU administration. The lead compounds were each administered at five different doses (5, 15, 45, 135 and 405 nmol/kg) that have been previously shown to effectively stimulate small intestine growth in healthy mice (Example 9). […]

Substance	Small intestine mass relative to [Gly2]GLP-2 [1]	Preferential growth of small intestine versus colon (small intestine-colon sensitivity) [1]	colon mass relative to body weight, % [Gly2]GLP-2 [1]	small intestine-colon sensitivity index, (SI/Colon)X/(SI/Colon)[Gly2]GLP-2 % [1]	5-FU-induced small intestine atrophy (SI-BW, SI length) [2]	Efficacy on SI-length compared with 405 nmol/kg [Gly2]GLP-2 [2]	Efficacy on SI-BW compared with 405 nmol/kg [Gly2]GLP-2 [2]	Efficacy on 5-FU-induced atrophy compared with [Gly2]GLP-2 (figure legends) [2]
[Gly2, Glu3, Leu10, Ser11, Ala16,24,28]hGLP-2(1-33)-NH2 [Compound 1857]	increased small intestine mass relative to [Gly2]GLP-2	preferentially stimulating epithelial growth in the small intestine	90 % [Gly2]GLP-2	130 % [Gly2]GLP-2	prevented 5-FU-induced small intestine atrophy; also recorded: dose-dependently prevented 5-FU-induced SI atrophy and maintained SI-BW at levels similar to PBS controls	significantly more efficacious than 405 nmol/kg [Gly2]GLP-2	significantly more efficacious than 405 nmol/kg [Gly2]GLP-2	
[Gly2, Glu3, Ser8,11, Leu10, Ala16,24,28]hGLP-2(1-33)-(Lys)6-NH2 (HGEGSFSSELSTILDALAARDFIAWLIATKITDKKKKKK-NH2) [Compound 1846]	increased small intestine mass relative to [Gly2]GLP-2	supplementary increase in the weight of the small intestine without significant effecting the weight of the colon; also recorded: preferentially stimulating epithelial growth in the small intestine	102 % [Gly2]GLP-2	118 % [Gly2]GLP-2	prevented 5-FU-induced small intestine atrophy; also recorded: dose-dependently prevented 5-FU-induced SI atrophy and maintained SI-BW at levels similar to PBS controls			
[Gly2, Glu3, Thr5, Ser8, Leu10, Ala11,16,24,28]hGLP-2(1-33)-(Lys)6-NH2 (HGEGTFSSELATILDALAARDFIAWLIATKITDKKKKKK-NH2) [Compound 1848]	increased small intestine mass relative to [Gly2]GLP-2	supplementary increase in the weight of the small intestine without significant effecting the weight of the colon; also recorded: preferentially stimulating epithelial growth in the small intestine	93 % [Gly2]GLP-2	117 % [Gly2]GLP-2	prevented 5-FU-induced small intestine atrophy; also recorded: dose-dependently prevented 5-FU-induced SI atrophy and maintained SI-BW at levels similar to PBS controls	significantly more efficacious than 405 nmol/kg [Gly2]GLP-2	significantly more efficacious than 405 nmol/kg [Gly2]GLP-2	more efficacious than [Gly2]GLP-2
[Gly2, Glu3, Thr5, Ser8, Leu10, Ala11,16,24,28]hGLP-2(1-33)-NH2 [Compound 1855]	increased small intestine mass relative to [Gly2]GLP-2	supplementary increase in the weight of the small intestine without significant effecting the weight of the colon; also recorded: preferentially stimulating epithelial growth in the small intestine	88 % [Gly2]GLP-2	120 % [Gly2]GLP-2	prevented 5-FU-induced small intestine atrophy; also recorded: dose-dependently prevented 5-FU-induced SI atrophy and maintained SI-BW at levels similar to PBS controls		significantly more efficacious than 405 nmol/kg [Gly2]GLP-2	more efficacious than the equimolar dose of [Gly2]GLP-2; also recorded: more efficacious than a high dose of [Gly2]GLP-2
